Results: publication PMC10139140, “Synthesis of Novel 2-(Cyclopentylamino)thiazol-4(5H)-one Derivatives with Potential Anticancer, Antioxidant, and 11β-HSD Inhibitory Activities” (International Journal of Molecular Sciences, 2023)

Columns and labels:
[1] = system: human pancreatic carcinoma (PANC-1); experiment: MTS metabolic activity assay, PANC-1 cells; type: cell-based; details: Homo sapiens, 72 h, read-out: Cell metabolic activity (MTS), % of untreated control; for viability at 10 µM: PANC-1, 10 µM; for viability at 20 µM: PANC-1, 20 µM; for viability at 50 µM: PANC-1, 50 µM; for viability at 100 µM: PANC-1, 100 µM; for viability at 200 µM: PANC-1, 200 µM; for viability at 300 µM: PANC-1, 300 µM; for viability at 500 µM: PANC-1, 500 µM
Method: (§1) The BJ (CRL-2522), Caco-2 (HTB-37), PANC-1 (CRL-1469), U-118 MG (HTB-15), SK-MEL-30 (ACC 151), and MDA-MB-231 (HTB-26) cell lines were purchased from ATCC (Manassas, VA, USA) or DSMZ (Braunschweig, GERMANY). Cells were cultured in accordance with manufacturers' recommendations in a DMEM, MEM, or RPMI-1640 (Sigma, Saint Louis, MO, USA; Gibco, Waltham, MA, USA), supplemented with 10% FBS, except for Caco-2 (20%) (Thermo Fisher Scientific, Waltham, MA, USA) and 1% antibiotic mix solution (penicillin, streptomycin; Thermo Fisher Scientific, Waltham, MA, USA) in a humidified atmosphere with 5% CO2 at 37 °C. All cell lines were cultured in T75 cell culture flasks or cell culture dishes to reach 80–90% confluency and seeded at a standard density of 5 × 10^3 cells/0.32 cm^2, except for BJ cells at 2 × 10^3 cells/0.32 cm^2.
(§2) The MTS ((MTS: 3-(4,5-dimethylthiazol-2-yl)-5-(3-carboxymethoxyphenyl)-2-(4-sulfophenyl)-2H-tetrazolium)) assay was performed following previously reported method. Briefly, cells were seeded at a standard density into 96-well flat-bottom plates and incubated for 24 h, followed by the treatment. The various concentrations of compounds were prepared and treated for the next 72 h. MTS solution was added for 3h and incubated at standard conditions, protected from light. Finally, the absorbance was read at […] and 620 nm wavelengths using a Synergy H1 microplate reader (BioTek, Santa Clara, CA, USA). The results are presented as %, while untreated control cells were considered 100%.

[2] = system: human breast carcinoma (MDA-MB-231); experiment: MTS metabolic activity assay, MDA-MB-231 cells; type: cell-based; details: Homo sapiens, 72 h, read-out: Cell metabolic activity (MTS), % of untreated control; for viability at 10 µM: MDA-MB-231, 10 µM; for viability at 20 µM: MDA-MB-231, 20 µM; for viability at 50 µM: MDA-MB-231, 50 µM; for viability at 100 µM: MDA-MB-231, 100 µM; for viability at 200 µM: MDA-MB-231, 200 µM; for viability at 300 µM: MDA-MB-231, 300 µM; for viability at 500 µM: MDA-MB-231, 500 µM
Method: as §1, §2

11β-HSD2 = biological target: T1, 11β-HSD2 (Homo sapiens, UniProt P80365); experiment: Inhibition of 11β-HSD2 (cortisol to cortisone, human microsomes, cortisol ELISA); type: biochemical; details: 2.5 h, 37 °C
T1 construct: Human liver microsomes were used as a source of 11β-HSD2 enzyme; tissue XenoTech Lot No. 1710160; host or cells: human kidney microsomes, mixed gender (method text says human liver microsomes)
T1 sequence (P80365 1-405): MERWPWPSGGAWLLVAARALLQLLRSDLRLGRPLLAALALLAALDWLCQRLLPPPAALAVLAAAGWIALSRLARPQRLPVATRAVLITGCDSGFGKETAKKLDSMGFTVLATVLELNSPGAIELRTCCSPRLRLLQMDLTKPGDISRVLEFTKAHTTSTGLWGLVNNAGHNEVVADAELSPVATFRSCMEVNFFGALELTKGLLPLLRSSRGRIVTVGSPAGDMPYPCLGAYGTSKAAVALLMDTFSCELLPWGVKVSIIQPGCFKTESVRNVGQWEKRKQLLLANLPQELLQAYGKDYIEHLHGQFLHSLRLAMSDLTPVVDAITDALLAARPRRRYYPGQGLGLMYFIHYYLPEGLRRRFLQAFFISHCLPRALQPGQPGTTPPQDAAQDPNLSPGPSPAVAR
Method: The resulting solution with a final volume of 100 µL was incubated for 2.5 h at 37 °C. […] The level of unreacted cortisol was measured by a commercially available ELISA kit.

11β-HSD1 = biological target: T2, 11β-HSD1 (Homo sapiens, UniProt P28845); experiment: Inhibition of 11β-HSD1 (cortisone to cortisol, human liver microsomes, cortisol ELISA); type: biochemical; details: for inhibition at 10 µM: 2.5 h, 37 °C
T2 construct: Human liver microsomes were used as a source of 11β-HSD1 enzyme; tissue XenoTech Lot No. 1410013; host or cells: pooled human liver microsomes, mixed gender
T2 sequence (P28845 whole entry): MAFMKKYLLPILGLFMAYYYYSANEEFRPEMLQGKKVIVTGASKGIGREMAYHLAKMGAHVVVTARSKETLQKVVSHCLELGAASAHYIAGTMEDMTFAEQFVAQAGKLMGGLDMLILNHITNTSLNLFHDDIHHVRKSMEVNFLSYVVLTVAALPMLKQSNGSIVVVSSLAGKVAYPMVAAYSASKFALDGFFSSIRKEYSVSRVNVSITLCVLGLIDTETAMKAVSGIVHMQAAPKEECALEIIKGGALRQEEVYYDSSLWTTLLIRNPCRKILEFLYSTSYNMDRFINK
Method: The resulting solution with a final volume of 100 µL was incubated for 2.5 h at 37 °C. To stop the reaction, 10 µL of a 100 µM solution of 18β-glycyrrhetinic acid in PBS was added. The level of cortisol obtained in the reaction was measured by commercially available ELISA kit.
As a control, analogous tests without the addition of inhibitors were used. Half the inhibitory concentration (causing 50% reduction of cortisol or cortisone) was read from the chart.

[3] = system: human colon carcinoma (Caco-2); experiment: MTS metabolic activity assay, Caco-2 cells; type: cell-based; details: Homo sapiens, 72 h, read-out: Cell metabolic activity (MTS), % of untreated control; for viability at 10 µM: Caco-2, 10 µM; for viability at 20 µM: Caco-2, 20 µM; for viability at 50 µM: Caco-2, 50 µM; for viability at 100 µM: Caco-2, 100 µM; for viability at 200 µM: Caco-2, 200 µM; for viability at 300 µM: Caco-2, 300 µM; for viability at 500 µM: Caco-2, 500 µM
Method: as §1, §2

glioma (U-118 MG) = experiment: MTS metabolic activity assay, U-118 MG cells; type: cell-based; details: Homo sapiens, U-118-MG, U118-MG, 72 h, read-out: Cell metabolic activity (MTS), % of untreated control
Method: as §1, §2

BJ cells = experiment: MTS metabolic activity assay, BJ cells; type: cell-based; details: Homo sapiens, 72 h, read-out: Cell metabolic activity (MTS), % of untreated control
Method: as §1, §2

[4] = system: skin melanoma (SK-MEL-30); experiment: MTS metabolic activity assay, SK-MEL-30 cells; type: cell-based; details: Homo sapiens, 72 h, read-out: Cell metabolic activity (MTS), % of untreated control; for viability at 10 µM: SK-MEL-30, 10 µM; for viability at 20 µM: SK-MEL-30, 20 µM; for viability at 50 µM: SK-MEL-30, 50 µM; for viability at 100 µM: SK-MEL-30, 100 µM; for viability at 200 µM: SK-MEL-30, 200 µM; for viability at 300 µM: SK-MEL-30, 300 µM; for viability at 500 µM: SK-MEL-30, 500 µM
Method: as §1, §2

Compound `CC1SC(NC2CCCC2)=NC1=O` (stereo not drawn) [Compound 3a, 2-(cyclopentylamino)-5-methylthiazol-4(5H)-one] has a viability at 10 µM [1] of 99.7%, a viability at 20 µM [1] of 104% and a viability at 50 µM [1] of 106%. For the same compound, the viability at 100 µM [1] was 107%, the viability at 200 µM [1] was 110% and the viability at 300 µM [1] was 106%. It also gave a viability at 500 µM [1] of 104%, a viability at 10 µM [2] of 105% and a viability at 20 µM [2] of 107%. For the same compound, the viability at 50 µM [2] was 103%, the viability at 100 µM [2] was 105% and the viability at 200 µM [2] was 104%. For the same compound, the viability at 300 µM [2] was 93.6%, the viability at 500 µM [2] was 89.8% and the inhibition at 10 µM (11β-HSD2) was 40.3 ± 0.65%. It also gave an IC50 (11β-HSD1) of over 10 µM, an inhibition at 10 µM (11β-HSD1) of 10.9 ± 4.08% and a viability at 10 µM [3] of 86.2%. For the same compound, the viability at 20 µM [3] was 92.8%, the viability at 50 µM [3] was 82.6% and the viability at 100 µM [3] was 81.6%. For the same compound, the viability at 200 µM [3] was 76.9%, the viability at 300 µM [3] was 75.5% and the viability at 500 µM [3] was 66.8%. For the same compound, the viability at 10 µM (glioma (U-118 MG)) was 111%, the viability at 20 µM (glioma (U-118 MG)) was 109% and the viability at 50 µM (glioma (U-118 MG)) was 113%. The viability at 100 µM (glioma (U-118 MG)) was 110%, the viability at 200 µM (glioma (U-118 MG)) was 110% and the viability at 300 µM (glioma (U-118 MG)) was 110%. For the same compound, the viability at 500 µM (glioma (U-118 MG)) was 105%, the viability at 10 µM (BJ cells) was 95.9% and the viability at 20 µM (BJ cells) was 98.4%. It also gave a viability at 50 µM (BJ cells) of 102%, a viability at 100 µM (BJ cells) of 112% and a viability at 200 µM (BJ cells) of 109%. It also gave a viability at 300 µM (BJ cells) of 109%, a viability at 500 µM (BJ cells) of 110% and a viability at 10 µM [4] of 104%. The viability at 20 µM [4] was 102%, the viability at 50 µM [4] was 102% and the viability at 100 µM [4] was 106%. The viability at 200 µM [4] was 103%, the viability at 300 µM [4] was 101% and the viability at 500 µM [4] was 97.6%.
With `CCC1SC(NC2CCCC2)=NC1=O` (stereo not drawn) [Compound 3b, 2-(cyclopentylamino)-5-ethylthiazol-4(5H)-one] the viability at 10 µM [1] was 103%, the viability at 20 µM [1] was 102% and the viability at 50 µM [1] was 107%. For the same compound, the viability at 100 µM [1] was 112%, the viability at 200 µM [1] was 113% and the viability at 300 µM [1] was 110%. For the same compound, the viability at 500 µM [1] was 105%, the viability at 10 µM [2] was 97.5% and the viability at 20 µM [2] was 97.8%. It also gave a viability at 50 µM [2] of 94.5%, a viability at 100 µM [2] of 95.3% and a viability at 200 µM [2] of 86.5%. It also gave a viability at 300 µM [2] of 75.3%, a viability at 500 µM [2] of 57.4% and an inhibition at 10 µM (11β-HSD2) of 39.7 ± 0.07%. For the same compound, the IC50 (11β-HSD1) was over 10 µM, the inhibition at 10 µM (11β-HSD1) was 21.3 ± 3.29% and the viability at 10 µM [3] was 87.9%. The viability at 20 µM [3] was 87.3%, the viability at 50 µM [3] was 84.4% and the viability at 100 µM [3] was 79.8%. The viability at 200 µM [3] was 77%, the viability at 300 µM [3] was 73.2% and the viability at 500 µM [3] was 66.1%. It also gave a viability at 10 µM (glioma (U-118 MG)) of 110%, a viability at 20 µM (glioma (U-118 MG)) of 107% and a viability at 50 µM (glioma (U-118 MG)) of 111%. It also gave a viability at 100 µM (glioma (U-118 MG)) of 113%, a viability at 200 µM (glioma (U-118 MG)) of 113% and a viability at 300 µM (glioma (U-118 MG)) of 112%. For the same compound, the viability at 500 µM (glioma (U-118 MG)) was 107%, the viability at 10 µM (BJ cells) was 97.9% and the viability at 20 µM (BJ cells) was 98.5%. For the same compound, the viability at 50 µM (BJ cells) was 102%, the viability at 100 µM (BJ cells) was 108% and the viability at 200 µM (BJ cells) was 110%. The viability at 300 µM (BJ cells) was 112%, the viability at 500 µM (BJ cells) was 111% and the viability at 10 µM [4] was 93.7%. It also gave a viability at 20 µM [4] of 99%, a viability at 50 µM [4] of 97.4% and a viability at 100 µM [4] of 105%. For the same compound, the viability at 200 µM [4] was 101%, the viability at 300 µM [4] was 98.4% and the viability at 500 µM [4] was 93.8%.
